Key:
Type in all cases: cell-based, human
[1] = test system: HIF-2a 5′-UTR Iron-Responsive Element (IRE); experiment: Luciferase reporters with HIF-2a 5′-UTR / IRE in 786-O cells; conditions: for dependence of effect on the IRE (wild-type or mutant 5′-UTR IRE reporter): 786-O luciferase reporter lines; for dependence of effect on HIF-2a 5′-UTR: HIF-2a promoter luciferase with or without 5′-UTR
HUVEC = HUVEC proliferation assay; conditions: conditioned supernatant from compound-treated 786-O cells
Experimental: HUVEC cells were plated in a 96 well plate in HUVEC minimal medium (Chembrex, EBM-2). 24 hours later, medium was replaced with a 1:4 mix of tissue culture medium that had been conditioned from compound or DMSO-only treated 786-O cells and HUVEC minimal medium. HUVEC proliferation was quantified by a colorimetric proliferation assay (WST-1, Roche, Germany).
Conditioned tissue culture medium from compound-treated 786-O cells was tested for its ability to induce human umbilical vein endothelial cell (HUVEC) proliferation.

786-O cells = experiment: Cellular toxicity at IC50 concentrations
[2] = test system: putative IRE in HIF-1a 5′-UTR; experiment: Luciferase reporter with putative HIF-1a IRE; conditions: 786-O derived reporter lines, normoxia or 1% oxygen
Experimental: The consensus sequence of the loop and the mandatory 5′ cytosine bulge are highlighted with light blue circles. […] Duplicate plates of 786-O derived lines expressing the putative wild-type or mutant HIF-1a IRE were cultured in the presence of compound as described for FIG. 1, with the exception that one set was placed at 1% oxygen for 24 hours following the first day's medium-change. Cells were treated with M, medium only; D, DMSO; or compounds, as indicated at the following concentrations: 40, 40 μM; 41, 30 μM; 76, 10 μM; 77, 5 μM. […] CWR22R or Hep3B cells were treated with compound and subjected to hypoxia as described above. B-Actin is shown for loading control. Cells were treated with M, medium only; D, DMSO; or compounds, as indicated at the following concentrations: 40, 40 μM; 41, 30 μM; 76, 20 μM; 77, 7.5 μM.
The lack of a functional IRE in HIF-1a represents a clear dichotomy between the two HIF isoforms that allows their translation to be controlled by a different regulatory system.

HIF-2a mRNA = experiment: qRT-PCR for HIF-2a mRNA expression; conditions: 786-O derived cells, qRT-PCR normalized to B2M
Experimental: ID NO: 1) and [NT] […] ID NO: 3) and [NT] ID NO: 4) for […] ID NO: 5) and [NT] ID NO: 6) for Transferrin Receptor 1 ([…] ID NO: 7) and [NT] ID NO: 8) for […] ID NO: 9) and [NT] ID NO: 10) for […] ID NO. 11) and [NT] ID NO: 12) for EGLN3. […] ID NO: 13) and [NT] ID NO: 14). Quantitative RT-PCR was performed on total RNA harvested from 7H4 cells treated with medium only, DMSO or compound. […] To test whether the compounds alter HIF-2a stability, the inventors assessed protein half-life following the addition of cycloheximide in compound versus DMSO-only treated cells (see FIG. 10).

HIF and VHL target genes = experiment: Gene expression profiling and gene set enrichment analysis (GSEA) of compound treated 786-O cells; conditions: for regulation of HIF target genes: 786-O cells at experimentally determined IC50 concentrations; for NES, gene set PRC3, VHL null (markers of PRC3 cells compared to WT8 cells) / NES, gene set Schofield, HIF (validated HIF-regulated genes) / NES, gene set Staller, VHL WT (markers of VHL WT cells compared to VHL null cells) / NES, gene set Staller, VHL null (markers of VHL null cells compared to VHL WT cells) / NES, gene set WT8, VHL WT (markers of WT8 cells compared to PRC3 cells): 786-O cells, GSEA normalized enrichment score
Experimental: RNA from compound treated 786-O cells was isolated as described for qRT-PCR experiments. Labeled cRNA was prepared and hybridized to Affymetrix U133 Plus 2.0 microarrays according to the manufacturer's protocols. Scans were processed using Affymetrix MASS software and median scaled. Gene expression values less than a minimum threshold of 20 or a maximum threshold of 16000 were set to 20 and 16000, respectively. Genes with minimal variation across the dataset were discarded (maximum/minimum<3 or maximum−minimum<100). Class neighbors were identified with GenePattern software using the signal to noise metric (Golub et al., 1999). Hierarchical clustering was performed using dCHIP software. Gene set enrichment analysis was performed as described (Mootha et al., 2003) and significance was determined by permutation of the gene labels. Gene expression signatures were analyzed using the Connectivity Map webtool (build 01). Full details of the Connectivity Map dataset and analytics are provided elsewhere (Lamb et al., 2006). For PGJ2 expression analysis, raw gene-expression data have GEO series accession number GSE13818 and compound signatures from which non-HG-U133A probe sets were removed (see Table 6) were used to query the Connectivity Map (build 02).
Total RNA was extracted from stable 786-O derived VHL-reconstituted (WT8), HIF-2a knock down (pTR) and their respective vector only control (PRC3 and pTV) cells and labeled cRNA was hybridized to oligonucleotide arrays. […] Compound-treated parental 786-O cells were subjected to the same analysis. […] The gene set enrichment analysis (GSEA) algorithm was used to investigate whether the compounds affected the expression of genes identified as VHL and HIF targets in other cell types (Mootha et al., 2003).

HIF-2a mRNA translation = experiment: 35S-methionine pulse-label immunoprecipitation of HIF-2a (translation); conditions: 786-O cells
Experimental: Cells were treated with medium only, DMSO, or compound as described for western blots. Following the second day of treatment, cells were washed twice in PBS and then placed into medium only, DMSO, or labeling medium (methionine minus DMEM supplemented with 1× glutamine and 5% dialyzed FBS) and pulse-labeled for 30 minutes at 37° C. with 0.5 mCi ^35S-Methionine (New England Nuclear) per p100 plate. Cells were washed twice in PBS and lysed with RIPA buffer supplemented with protease inhibitors. […] In the case of the pulse-chase experiment, two identically treated plates were placed into chasing medium (DMEM supplemented with 10% Fetal Clone I, 1× Glutamine and 3 mg/mL methionine), placed back into the 37° C. incubator and harvested after 1.5 and 3 hours. Immunoprecipitated samples were subjected to SDS-PAGE, enhanced in sodium salicylate, dried and exposed for 2-3 days before the film was quantified by densitometry.
The effect of HIF inhibitors on protein translation was determined by ^35S-methionine pulse labeling DMSO or compound treated cells. […] Pulse chase experiments confirm that this decrease is not attributable to any effect on the protein half-life (see FIG. 11).
To determine if PGJ2 decreases translation of the HIF2a message, the inventors evaluated the synthesis rate and stability of the newly synthesized HIF2a by an ^35S-methionine pulse chase experiment on PGJ2 or vehicle only DMSO treated 786-O cells. […] Loading control is 1/1000th of the cell lysate used in the respective immunoprecipitation directly loaded into an SDS-PAGE gel.

Row | Compound | dependence of effect on the IRE (wild-type or mutant 5′-UTR IRE reporter) [1] | dependence of effect on HIF-2a 5′-UTR [1] | angiogenic activity of renal carcinoma cell supernatant (HUVEC proliferation) (HUVEC) | cellular toxicity (786-O cells) | effect on putative IRE in HIF-1a 5′-UTR [2] | HIF-2a mRNA expression (HIF-2a mRNA) | regulation of HIF target genes (HIF and VHL target genes) | NES, gene set PRC3, VHL null (markers of PRC3 cells compared to WT8 cells) (HIF and VHL target genes) | NES, gene set Schofield, HIF (validated HIF-regulated genes) (HIF and VHL target genes) | NES, gene set Staller, VHL WT (markers of VHL WT cells compared to VHL null cells) (HIF and VHL target genes) | NES, gene set Staller, VHL null (markers of VHL null cells compared to VHL WT cells) (HIF and VHL target genes) | NES, gene set WT8, VHL WT (markers of WT8 cells compared to PRC3 cells) (HIF and VHL target genes) | HIF-2a mRNA translation (newly synthesized HIF-2a protein) (HIF-2a mRNA translation) | effect on synthetic 5′-UTR stem loop reporter (CMV-SL over CMV) ([1]; 786-O cells, 10 μM)
1 | CC1(C)CC(=O)C=C(Sc2ccc(C#N)cc2[N+](=O)[O-])S1 [Compound 77, 4-[(2,2-dimethyl-4-oxo-3,4-dihydro-2H-thiin-6-yl)thio]-3-nitrobenzonitrile] | work via the Iron-Responsive Element (IRE) | dependent upon presence of 5′-UTR | decrease the angiogenic activity of renal carcinoma cell supernatant | comparative lack of cellular toxicity at IC50 concentrations | do not affect putative IRE in HIF-1a 5′-UTR | do not effect HIF-2a mRNA expression | coordinately downregulate HIF target genes | NES: −3.15 | NES: −1.78 | NES: 1.53 | NES: −2.45 | NES: 1.88 | decrease HIF-2a mRNA translation | –
2 | COC(=O)c1sccc1N/N=C(/C#N)S(C)(=O)=O [Compound 76, methyl 3-{2-[cyano(methylsulfonyl)methylene] hydrazino}thiophene-2-carboxylate] | work via the Iron-Responsive Element (IRE) | dependent upon presence of 5′-UTR | decrease the angiogenic activity of renal carcinoma cell supernatant | comparative lack of cellular toxicity at IC50 concentrations | do not affect putative IRE in HIF-1a 5′-UTR | do not effect HIF-2a mRNA expression | coordinately downregulate HIF target genes | NES: −3.15 | NES: −1.78 | NES: 1.53 | NES: −2.45 | NES: 1.88 | decrease HIF-2a mRNA translation | –
3 | COc1ccc(O)c(/C=C/C(=O)c2c(O)cc(C)oc2=O)c1 [Compound 41, 4-hydroxy-3-[3-(2-hydroxy-5-meoxyphenyl)acryloyl]-6-methyl-2H-pyran-2-one] | work via the Iron-Responsive Element (IRE) | dependent upon presence of 5′-UTR | decrease the angiogenic activity of renal carcinoma cell supernatant | comparative lack of cellular toxicity at IC50 concentrations | do not affect putative IRE in HIF-1a 5′-UTR | do not effect HIF-2a mRNA expression | coordinately downregulate HIF target genes | NES*: −2.98 | NES: −1.62 | NES: 1.62 | NES: −2.42 | NES: 1.58 | decrease HIF-2a mRNA translation | –
4 | C/C(=C\c1ccccc1)C(=O)CCN(C)C.Cl [Compound 40, 5-(dimethylamino)-2-methyl-1-phenyl-1-penten-3-one hydrochloride] | work via the Iron-Responsive Element (IRE) | dependent upon presence of 5′-UTR | decrease the angiogenic activity of renal carcinoma cell supernatant | comparative lack of cellular toxicity at IC50 concentrations | do not affect putative IRE in HIF-1a 5′-UTR | do not effect HIF-2a mRNA expression | coordinately downregulate HIF target genes | NES: −3.50 | NES: −1.65 | NES: −1.75 | NES: −2.48 | NES: −1.86 | decrease HIF-2a mRNA translation | –
5 | CCCCC/C=C/C=C1/C(=O)C=C[C@@H]1C/C=C\CCCC(=O)O [PGJ2, 15-deoxy-Δ^12,14-prostaglandin J2] | completely abolished PGJ2 sensitivity | decreased the luciferase activity derived from the UTR-containing plasmid but not the plasmid driven by the HIF promoter alone | – | – | – | no concomitant decrease in HIF2a mRNA expression | – | – | – | – | – | – | significantly decrease the amount of protein translated from the mRNA without decreasing the half-life of the protein | no effect on the synthetic 5′-UTR element
